Source: the NIST ThermoML archive (doi:10.1016/j.tca.2007.03.018)
Values joined by “and” are separate entries in the source; they are usually repeats but may differ in a detail not shown here. Equal values may be shown once.

Test: molar heat capacity at saturation pressure
Settings: Crystal 3, Small (less than 1 g) adiabatic calorimetry

C1C2CC3CC1CC(C14CC5CC(CC(C5)C1)C4)(C2)C3 [1,1'-biadamantane]
Settings | molar heat capacity
5.12 K | 0.3991 J/K/mol
5.48 K | 0.4822 J/K/mol
5.83 K | 0.5877 J/K/mol
6.16 K | 0.685 J/K/mol
6.52 K | 0.8082 J/K/mol
6.89 K | 0.9715 J/K/mol
7.26 K | 1.141 J/K/mol
7.65 K | 1.358 J/K/mol
8.06 K | 1.589 J/K/mol
8.49 K | 1.895 J/K/mol
8.96 K | 2.209 J/K/mol
9.44 K | 2.572 J/K/mol
9.95 K | 2.983 J/K/mol
10.48 K | 3.464 J/K/mol
11.04 K | 3.988 J/K/mol
11.61 K | 4.561 J/K/mol
12.2 K | 5.242 J/K/mol
12.83 K | 5.943 J/K/mol
13.49 K | 6.781 J/K/mol
14.18 K | 7.626 J/K/mol
14.87 K | 8.538 J/K/mol
15.63 K | 9.556 J/K/mol
16.43 K | 10.67 J/K/mol
17.24 K | 11.86 J/K/mol
18.08 K | 13.09 J/K/mol
18.95 K | 14.44 J/K/mol
19.88 K | 15.84 J/K/mol
20.83 K | 17.31 J/K/mol
21.82 K | 18.74 J/K/mol
22.89 K | 20.35 J/K/mol
22.95 K | 20.46 J/K/mol
24.01 K | 21.99 J/K/mol
24.06 K | 22.16 J/K/mol
25.22 K | 23.79 J/K/mol
26.48 K | 25.74 J/K/mol
27.75 K | 27.57 J/K/mol
29.1 K | 29.32 J/K/mol
30.54 K | 31.4 J/K/mol
31.99 K | 33.13 J/K/mol
33.46 K | 34.98 J/K/mol
34.99 K | 36.71 J/K/mol
36.59 K | 38.54 J/K/mol
38.25 K | 40.44 J/K/mol
40.03 K | 42.38 J/K/mol
41.9 K | 44.38 J/K/mol
43.85 K | 46.11 J/K/mol
45.82 K | 48.13 J/K/mol
47.8 K | 49.99 J/K/mol
49.9 K | 51.98 J/K/mol
52.16 K | 54.02 J/K/mol
56.79 K | 58.28 J/K/mol
59.06 K | 60 J/K/mol
61.48 K | 62.21 J/K/mol
64.1 K | 64.5 J/K/mol
66.87 K | 66.86 J/K/mol
69.6 K | 69.08 J/K/mol
72.27 K | 71.72 J/K/mol
74.94 K | 73.93 J/K/mol
77.75 K | 76.41 J/K/mol
78.69 K | 77.62 J/K/mol
80.6 K | 79.18 J/K/mol
81.1 K | 79.65 J/K/mol
83.35 K | 81.61 J/K/mol
83.41 K | 81.57 J/K/mol
85.61 K | 83.56 J/K/mol
86.26 K | 84.36 J/K/mol
87.88 K | 85.72 J/K/mol
89.1 K | 86.73 J/K/mol
90.15 K | 87.8 J/K/mol
91.92 K | 89.55 J/K/mol
92.41 K | 89.88 J/K/mol
94.69 K | 91.96 J/K/mol
96.97 K | 94.12 J/K/mol
99.26 K | 96.28 J/K/mol
101.55 K | 98.53 J/K/mol
103.84 K | 100.69 J/K/mol
106.12 K | 102.85 J/K/mol
108.41 K | 105.09 J/K/mol
110.71 K | 107.17 J/K/mol
113 K | 109.58 J/K/mol
115.31 K | 111.83 J/K/mol
117.61 K | 113.99 J/K/mol
119.9 K | 116.15 J/K/mol
122.2 K | 118.56 J/K/mol
124.49 K | 120.81 J/K/mol
126.77 K | 123.05 J/K/mol
129.06 K | 125.38 J/K/mol
130.26 K | 126.5 J/K/mol
131.34 K | 127.63 J/K/mol
132.68 K | 129 J/K/mol
134.96 K | 131.3 J/K/mol
137.24 K | 133.6 J/K/mol
139.51 K | 135.9 J/K/mol
141.78 K | 138.2 J/K/mol
144.05 K | 140.5 J/K/mol
146.32 K | 142.9 J/K/mol
148.59 K | 145.3 J/K/mol
150.84 K | 147.7 J/K/mol
153.1 K | 150.1 J/K/mol
155.35 K | 152.4 J/K/mol
157.59 K | 154.7 J/K/mol
159.84 K | 157.1 J/K/mol
162.08 K | 159.6 J/K/mol
164.32 K | 161.9 J/K/mol
166.57 K | 164.4 J/K/mol
168.8 K | 166.9 J/K/mol
171.03 K | 169.3 J/K/mol
173.25 K | 171.7 J/K/mol
175.46 K | 174.2 J/K/mol
177.68 K | 176.7 J/K/mol
179.89 K | 179.2 J/K/mol
182.09 K | 181.7 J/K/mol
184.28 K | 184.2 J/K/mol
186.47 K | 186.7 J/K/mol
188.65 K | 189.2 J/K/mol
190.83 K | 191.6 J/K/mol
193 K | 194.2 J/K/mol
195.17 K | 196.7 J/K/mol
197.33 K | 199.3 J/K/mol
199.49 K | 201.8 J/K/mol
201.65 K | 204.5 J/K/mol
203.8 K | 207.1 J/K/mol
205.94 K | 209.8 J/K/mol
208.08 K | 212.4 J/K/mol
210.21 K | 215 J/K/mol
212.34 K | 217.7 J/K/mol
214.46 K | 220.3 J/K/mol
216.58 K | 222.9 J/K/mol
217.18 K | 223.7 J/K/mol
218.7 K | 225.6 J/K/mol
219.55 K | 226.6 J/K/mol
220.81 K | 228.3 J/K/mol
221.81 K | 229.5 J/K/mol
222.91 K | 231 J/K/mol
224.05 K | 232.4 J/K/mol
225.01 K | 233.7 J/K/mol
226.29 K | 235.3 J/K/mol
228.52 K | 238.3 J/K/mol
230.75 K | 241.1 J/K/mol
232.97 K | 244 J/K/mol
235.18 K | 246.9 J/K/mol
237.39 K | 249.9 J/K/mol
239.59 K | 252.9 J/K/mol
241.79 K | 255.7 J/K/mol
243.98 K | 258.7 J/K/mol
246.17 K | 261.7 J/K/mol
248.35 K | 264.6 J/K/mol
250.52 K | 267.6 J/K/mol
252.71 K | 270.6 J/K/mol
254.88 K | 273.6 J/K/mol
257.04 K | 276.7 J/K/mol
259.19 K | 279.8 J/K/mol
261.34 K | 282.9 J/K/mol
263.48 K | 286 J/K/mol
265.62 K | 289.2 J/K/mol
267.75 K | 292 J/K/mol
269.87 K | 295.1 J/K/mol
271.98 K | 298.2 J/K/mol
274.09 K | 301.2 J/K/mol
275.74 K | 303.3 J/K/mol
276.2 K | 304.1 J/K/mol
277.54 K | 306 J/K/mol
278.29 K | 307.1 J/K/mol
279.26 K | 308.4 J/K/mol
280.39 K | 310.1 J/K/mol
280.98 K | 311 J/K/mol
282.47 K | 313.1 J/K/mol
282.68 K | 313.6 J/K/mol
284.38 K | 316 J/K/mol
284.56 K | 316 J/K/mol
286.08 K | 318.6 J/K/mol
286.65 K | 319.1 J/K/mol
287.78 K | 321.1 J/K/mol
288.72 K | 322.2 J/K/mol
289.47 K | 323.6 J/K/mol
290.79 K | 325 J/K/mol
291.16 K | 325.9 J/K/mol
292.84 K | 328 J/K/mol and 328.3 J/K/mol
294.52 K | 330.7 J/K/mol
294.89 K | 331.1 J/K/mol
296.19 K | 333.2 J/K/mol
296.94 K | 334 J/K/mol
297.87 K | 335.4 J/K/mol
298.98 K | 336.9 J/K/mol
299.54 K | 338 J/K/mol
301.01 K | 339.9 J/K/mol
301.2 K | 340.6 J/K/mol
302.86 K | 342.9 J/K/mol
303.04 K | 342.7 J/K/mol
304.51 K | 345.2 J/K/mol
305.05 K | 345.7 J/K/mol
